Assay results from patent publication US20240336617A1, “Substituted Bimane Compounds and Methods of Use Thereof” (THE TRUSTEES OF THE UNIVERSITY OF PENNSYLVANIA, priority 2023, published 2024).
“Also recorded” adds a separate entry of the source. Where two headings read alike, the source gives them in different places.

Assays:
[1] = Absorbance measurements (UV-Vis); details: 25 μM
[2] = Fluorescence (emission) measurements; type: physicochemical;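 note: fluorescence emission spectra recorded on a spectrofluorometer, with each compound excited at its own absorption maximum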
Procedure: The fluorescence spectrum of each derivative (150 μL) was measured on a Photon Technology International (PTI) QuantaMaster™ 40 fluorescence spectrometer by excitation at the maximum absorption wavelength for each compound.
The fluorescence spectrum of each derivative (150 μL) was measured on a Photon Technology International (PTJ) QuantaMaster™ 40 fluorescence spectrometer by excitation at the maximum absorption wavelength for each compound.

[3] = Fluorescent quantum yield (QY) measurements; type: physicochemical
Procedure: For each QY measurement, the incident excitation light spectrum was collected with 1 mL of solvent. […] Using the JASCO Quantum Yield Software, the dye QY was calculated by dividing the dye fluorescence intensity by the difference in incident light intensity in the presence and absence of dye. The minimum excitation wavelength for a full excitation incident spectrum using this setup is 360 nm.
Fluorescent quantum yield (QY) measurements. For each QY measurement, the incident excitation light spectrum was collected with 1 mL of solvent. After measuring the incident light intensity, dye (3 and 5a-5k) was added to the solvent from a concentrated stock solution to a final concentration of […] and the new spectrum (fluorescence intensity and new incident light intensity) was collected. Using the JASCO Quantum Yield Software, the dye QY was calculated by dividing the dye fluorescence intensity by the difference in incident light intensity in the presence and absence of dye. The minimum excitation wavelength for a full excitation incident spectrum using this setup is 360 nm.

Aβ1-42 fibrils = molecular target: T1, Aβ1-42 fibrils (Homo sapiens, UniProt P05067); assay: Fluorescence and excitation spectra with Aβ1-42 fibrils; type: binding
T1 construct: The β-amyloid (1-42) peptide, human; purchased Genscript RP10017
Procedure: (§1) Fluorescence measurements were performed using a PTI QuantaMaster™ 40 fluorescence spectrometer. Fluorescence spectra of 10 μM probes (concentrated stock solution prepared as 10 mM in DMSO) (7j, 7k, 7l, 7m, and ThT) in PBS buffer were measured in the absence and presence of 50 μM Aβ1-42 fibrils (stock solution 1 mM Aβ1-42 in 10 mM phosphate buffer, pH 7.4).
(§2) Excitation spectral measurements were performed using a PTI QuantaMaster™ 40 fluorescence spectrometer. Excitation spectra of 10 μM probes (concentrated stock solution prepared as 10 mM in DMSO) (7j, 7k, 7l, 7m, and ThT) in PBS buffer were measured in the absence and presence of 50 μM Aβ1-42 fibrils (stock solution 1 mM Aβ1-42 in phosphate buffer).
as §1, with “(5j, 5k” for “(7j, 7k, 7l, 7m,”, “Ab1-42” for “Aβ1-42”
as §2, with “QuantaMaster” for “QuantaMaster™”, “(5j, 5k” for “(7j, 7k, 7l, 7m,”, “Ab1-42” for “Aβ1-42”, “buffer). […]” for “buffer).”

[4] = Molar absorptivity determination; type: physicochemical;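 note: molar absorptivity derived from UV-Vis absorbance spectra recorded for each derivative on a spectrometer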
Procedure: The absorbance spectrum of each derivative (150 μL) was measured on a Thermo Scientific Genesys 150 UV-Vis spectrometer, using 50:50 ACN/PBS as a blank.
Molar absorptivity determination. […] The absorbance spectrum of each derivative (150 μL) was measured on a Thermo Scientific Genesys 150 UV-Vis spectrometer, using 50:50 ACN/PBS as a blank.

[5] = tested on: αS fibrils versus tau fibrils; assay: Amyloid selectivity by plate reader, αS versus tau fibrils; type: binding
Procedure: Experiments were performed on the Tecan Spark in Greiner 96 well flat black ½ area plates using the following parameters: excitation and emission band widths 5 nm, lag time 0 μs, integration time 40 μs. A 10 mM DMSO stock solution of probes (7j-7m) and 100 μM stock of αS fibrils were used in the study described herein.

[6] = molecular target: T2, amplified αS fibrils (AFs) from PDD patient brain extracts (Homo sapiens, UniProt P37840); assay: Fluorescence measurements with PDD patient cases (lysate, AFs, PFFs); type: binding; details: lysate or AFs and probe 1 μM
T2 construct: made in house; host or cells: recombinant αS monomer, seeded with sarkosyl-insoluble extract of human frontal cortex (AD or PDD)
Procedure: All procedures were performed in accordance with local institutional review board guidelines. Written informed consent for autopsy and analysis of tissue sample data was obtained either from patients themselves or their next of kin. Frozen postmortem human frontal cortex brain tissues from three patients diagnosed with Alzheimer's disease (AD) and three patients diagnosed with Parkinson's disease with dementia (PDD) were selected for sequential extraction of αS aggregates based on a high burden of αS pathology determined by immunohistochemical staining. In brief, 5-10 g of frontal cortical gray matter were homogenized in five volumes (W/V) of high-salt (HS) buffer (50 mM Tris-HCl pH 7.4, 750 mM NaCl, 10 mM NaF, 5 mM EDTA) with protease and protein phosphatase inhibitors, incubated on ice for 20 min and centrifuged at 100,000×g for 30 min. The pellets were then re-extracted with HS buffer, followed by sequential extractions with five volumes of 1% Triton X-100-containing HS buffer and 1% Triton X-100-containing HS buffer with 30% sucrose. The pellets were then re-suspended and homogenized in 1% sarkosyl-containing HS buffer, rotated at room temperature for 2 h or at 4° C. overnight and centrifuged at 100,000×g for 30 min. […] These final sarkosyl-insoluble fractions are referred to as “brain extracts.: The amount of αS in the brain extracts was determined by sandwich ELISA using Syn9027, a mono-clonal antibody (Mab) to αS, and the protein concentrations were examined by bicinchoninic acid (BCA) assay. […]
(§3) Brain-derived αS aggregates in extract samples from three AD and three PDD cases (FIG. 38A) were used as seeds for templated aggregation of recombinant αS monomer. […] After seven days of incubation, amplification progress was determined by removing an aliquot and diluting tenfold in DPBS to a final αS concentration of 3.5 μM. […] Equal volumes of supernatant and pellet fractions were analyzed on SDS-PAGE gels and Western blot, with amplified aggregates migrating to the pellet fraction (FIG. 38B). […]

[7] = molecular target: T3, amplified αS fibrils (AFs) from AD patient brain extracts (Homo sapiens, UniProt P37840); assay: Fluorescence measurements with AD patient cases (lysate, AFs, PFFs); type: binding; details: lysate or AFs and probe 1 μM
T3 construct: made in house; host or cells: recombinant αS monomer, seeded with sarkosyl-insoluble extract of human frontal cortex (AD or PDD)
Procedure: All procedures were performed in accordance with local institutional review board guidelines. Written informed consent for autopsy and analysis of tissue sample data was obtained either from patients themselves or their next of kin. Frozen postmortem human frontal cortex brain tissues from three patients diagnosed with Alzheimer's disease (AD) and three patients diagnosed with Parkinson's disease with dementia (PDD) were selected for sequential extraction of αS aggregates based on a high burden of αS pathology determined by immunohistochemical staining. […] These final sarkosyl-insoluble fractions are referred to as “brain extracts.: The amount of αS in the brain extracts was determined by sandwich ELISA using Syn9027, a mono-clonal antibody (Mab) to αS, and the protein concentrations were examined by bicinchoninic acid (BCA) assay. […]
as §3

[8] = background statement; cited from earlier work

T1 sequence (P05067 672-713): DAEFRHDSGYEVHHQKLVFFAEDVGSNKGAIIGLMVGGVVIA

| Abs. λabs ([1]; ACN only) | Abs. λabs ([1]; ACN:PBS (50:50 v/v)) | Stokes shift ([2]; ACN only) | Em. λem ([2]; ACN only, 25 μM) | Stokes shift ([2]; ACN:PBS (50:50 v/v)) | Q.Y. ([3]; ACN only) | Q.Y. ([3]; ACN:PBS (50:50 v/v)) | ε ([4]; ACN only) | ε ([4]; ACN:PBS (50:50 v/v)) | SMILES | fluorescence turn on with Aβ1-42 fibrils (Aβ1-42 fibrils) | turn on with αS and tau fibrils [5] | fluorescence detection of PDD amplified fibrils (AFs) [6] | fluorescence detection of AD amplified fibrils (AFs) [7] | Stokes shift [8] |
| --- | --- | --- | --- | --- | --- | --- | --- | --- | --- | --- | --- | --- | --- | --- |
| 435 nm | 447 nm | 189 nm | 624 nm | 195 nm | 44.2% | 0.77% | 25212 M⁻¹ cm⁻¹ | 22370 M⁻¹ cm⁻¹ | Cc1c(C)n2c(/C=C/c3nc4ccc(N(C)C)cc4s3)c(C)c(=O)n2c1=O [Compound 8f, (E)-3-(2-(6-(dimethylamino)benzo[d]thiazol-2-yl)vinyl)-2,5,6-trimethyl-1H,7H-pyrazolo[1,2-a]pyrazole-1,7-dione] | high turn on of fluorescence in the presence of PFFs; also recorded: selective fluorescence increases in the presence of Aβ1-42 fibrils | – | – | – | – |
| – | – | – | – | – | – | – | – | – | Cc1ccc2c(c1)sc(-c1ccc(N(C)C)cc1)[n+]2C.[Cl-] [ThT, Thioflavin-T, reference compound] | – | high turn on with both αS and tau; also recorded: high turn-on with both αS and tau | does not effectively detect these amplified fibrils; also recorded: unable to differentiate the lysates and AFs of PDD samples | barely registers significance for detection of AFs in AD samples | ~50 nm |
